Experimental data published in US20260325533A1, “CDK INHIBITOR COMPOUNDS” (ALEKSIA THERAPEUTICS, INC., priority 2023, published 2026).
Read-outs that look alike come from different tables or passages of the source.

Legend:
Assay type in all cases: biochemical
CDK2/CCNE1 = CDK2/CCNE1 (Homo sapiens, UniProt P24941); experiment: CDK2 homogeneous time-resolved fluorescence (HTRF) kinase assay; details: CDK2/CCNE
Summary of the method: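 Compounds were titrated 11-point, half-log from typically 10 μM against 3 nM CDK2/cyclin E1 at 1 mM ATP, with a 20 min enzyme preincubation. Phosphorylation of 50 nM ULight-4E-BP1 peptide over 60 min at 23 °C was detected by europium anti-phospho antibody TR-FRET.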

CDK1/CCNB1 = CDK1/CCNB1 (Homo sapiens, UniProt P06493); experiment: CDK1 homogeneous time-resolved fluorescence (HTRF) kinase assay; details: >250 nM; CDK1/CCNB; read-out: CDK1/CCNB IC50 >250 nM
Chain of CDK1/CCNB1 (P06493 whole entry): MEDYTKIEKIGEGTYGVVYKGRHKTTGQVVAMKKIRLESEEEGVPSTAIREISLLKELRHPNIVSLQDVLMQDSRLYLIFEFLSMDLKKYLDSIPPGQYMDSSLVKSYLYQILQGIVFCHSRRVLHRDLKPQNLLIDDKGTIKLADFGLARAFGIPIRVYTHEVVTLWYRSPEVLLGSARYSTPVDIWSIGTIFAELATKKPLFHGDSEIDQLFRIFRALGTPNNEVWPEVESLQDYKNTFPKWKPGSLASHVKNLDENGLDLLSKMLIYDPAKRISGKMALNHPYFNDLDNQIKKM
Chain of CDK1/CCNB1 (P14635 whole entry partner): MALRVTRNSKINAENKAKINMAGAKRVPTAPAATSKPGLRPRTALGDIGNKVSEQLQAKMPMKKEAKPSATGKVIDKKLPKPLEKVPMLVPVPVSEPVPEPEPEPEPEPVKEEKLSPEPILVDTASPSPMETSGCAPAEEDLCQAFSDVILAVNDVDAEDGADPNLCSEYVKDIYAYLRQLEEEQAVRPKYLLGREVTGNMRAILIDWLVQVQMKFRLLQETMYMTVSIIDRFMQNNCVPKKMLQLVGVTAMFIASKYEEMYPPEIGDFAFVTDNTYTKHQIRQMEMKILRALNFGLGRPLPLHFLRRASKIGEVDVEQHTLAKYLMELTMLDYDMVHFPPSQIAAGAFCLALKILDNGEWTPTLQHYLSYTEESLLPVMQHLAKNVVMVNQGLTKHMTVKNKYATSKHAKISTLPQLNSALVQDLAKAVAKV
Summary of the method: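 Compounds, titrated 11 points in half-log steps typically from 10 μM, were incubated with enzyme for 20 min before ATP (1 mM) and ULight-labelled eIF4E-binding protein 1 peptide (50 nM) started a 60-min reaction at 23 °C. Phosphopeptide was detected by europium-antibody TR-FRET and IC50 values were derived.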

CDK4/CCND3 = CDK4/CCND3 (Homo sapiens, UniProt P11802); experiment: CDK4 homogeneous time-resolved fluorescence (HTRF) kinase assay; details: CDK4/CCND
Chain of CDK4/CCND3 (P11802 whole entry): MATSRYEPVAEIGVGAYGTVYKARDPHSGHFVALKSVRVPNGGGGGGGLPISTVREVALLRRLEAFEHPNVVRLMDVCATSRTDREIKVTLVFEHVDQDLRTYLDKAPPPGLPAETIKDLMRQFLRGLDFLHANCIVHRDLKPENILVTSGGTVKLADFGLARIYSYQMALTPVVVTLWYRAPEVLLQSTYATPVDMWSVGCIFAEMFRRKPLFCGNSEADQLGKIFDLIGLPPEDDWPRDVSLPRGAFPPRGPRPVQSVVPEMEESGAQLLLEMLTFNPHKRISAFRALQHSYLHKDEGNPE
Chain of CDK4/CCND3 (P30281 whole entry partner): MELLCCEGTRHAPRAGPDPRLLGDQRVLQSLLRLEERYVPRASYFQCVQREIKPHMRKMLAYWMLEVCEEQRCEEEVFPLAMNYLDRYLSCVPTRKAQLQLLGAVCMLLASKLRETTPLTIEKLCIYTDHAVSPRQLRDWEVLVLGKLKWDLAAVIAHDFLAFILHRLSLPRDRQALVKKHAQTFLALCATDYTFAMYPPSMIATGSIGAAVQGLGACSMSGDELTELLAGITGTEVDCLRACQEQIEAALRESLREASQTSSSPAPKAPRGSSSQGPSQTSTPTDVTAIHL
Summary of the method: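 Steps: compound plus 1.5 nM CDK4/CCND3, 20 min, 23 °C; add 1 mM ATP and 50 nM ULight-4E-BP1 (Thr37/46) peptide, 60 min; stop with 10 mM EDTA; add 2 nM Eu anti-phospho antibody, 60 min; read 665 nm. IC50 from 11-point half-log series starting 10 μM.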

CDK6/CCND1 = CDK6/CCND1 (Homo sapiens, UniProt Q00534); experiment: CDK6 homogeneous time-resolved fluorescence (HTRF) kinase assay; details: CDK6/CCND, 1 mM ATP
Chain of CDK6/CCND1 (Q00534 whole entry): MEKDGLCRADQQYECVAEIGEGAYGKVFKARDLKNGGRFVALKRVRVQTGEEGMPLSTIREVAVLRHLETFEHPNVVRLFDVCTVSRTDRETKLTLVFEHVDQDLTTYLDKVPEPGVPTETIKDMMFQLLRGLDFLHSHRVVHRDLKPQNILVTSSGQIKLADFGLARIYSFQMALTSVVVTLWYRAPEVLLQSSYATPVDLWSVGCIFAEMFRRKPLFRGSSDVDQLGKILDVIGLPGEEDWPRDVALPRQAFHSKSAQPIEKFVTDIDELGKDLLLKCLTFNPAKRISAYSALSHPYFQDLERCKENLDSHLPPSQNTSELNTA
Chain of CDK6/CCND1 (P24385 whole entry partner): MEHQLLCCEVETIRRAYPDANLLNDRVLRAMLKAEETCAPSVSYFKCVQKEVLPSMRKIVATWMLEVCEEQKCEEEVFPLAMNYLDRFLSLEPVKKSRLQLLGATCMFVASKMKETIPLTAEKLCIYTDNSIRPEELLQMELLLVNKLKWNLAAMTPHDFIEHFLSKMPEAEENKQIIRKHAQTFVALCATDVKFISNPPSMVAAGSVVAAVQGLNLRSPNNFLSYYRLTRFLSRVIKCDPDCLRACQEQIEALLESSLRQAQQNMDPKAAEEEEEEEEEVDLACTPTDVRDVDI
Summary of the method: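 Enzyme pre-incubated 20 min at 23 °C with compound, then reacted 60 min at 23 °C with 1 mM ATP and 50 nM ULight-4E-BP1 (Thr37/46) peptide; 1 nM enzyme, 1% DMSO. EDTA-stopped, Eu-anti-phospho antibody TR-FRET read (665 nm or 665/615 ratio); 11-point half-log titration from 10 μM gave IC50.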

[1] = 25-250 nM, read-out: CDK2/CCNE IC50, 25-250 nM
[2] = >250 nM, read-out: CDK4/CCND IC50, >250 nM
[3] = >250 nM, read-out: CDK6/CCND IC50, >250 nM
[4] = <25 nM, read-out: CDK2/CCNE IC50, <25 nM
[5] = 25-250 nM, read-out: CDK4/CCND IC50, 25-250 nM
[6] = 25-250 nM, read-out: CDK6/CCND IC50, 25-250 nM

| SMILES | IC50 (CDK2/CCNE1; [1]) | IC50 (CDK1/CCNB1) | IC50 (CDK4/CCND3; [2]) | IC50 (CDK6/CCND1; [3]) | IC50 (CDK2/CCNE1; [4]) | IC50 (CDK4/CCND3; [5]) | IC50 (CDK6/CCND1; [6]) | IC50 (CDK2/CCNE1; >250 nM, read-out: CDK2/CCNE IC50, >250 nM) |
| --- | --- | --- | --- | --- | --- | --- | --- | --- |
| Cc1c(-c2nccc3cnc(Nc4ccc(S(=O)(=O)Nc5ncc(C(F)(F)F)cn5)cc4)cc23)ccc2c1cnn2CC(C)(C)O [Ex 894, 4-((5-(1-(2-hydroxy-2-methylpropyl)-4-methyl-1H-indazol-5-yl)-2,6-naphthyridin-3-yl)amino)-N-(5-(trifluoromethyl)pyrimidin-2-yl)benzenesulfonamide] | 25 to 250 nM | > 250 nM | > 250 nM | > 250 nM | – | – | – | – |
| Cc1c(-c2nccc3cnc(Nc4ccc(S(=O)(=O)Nc5ncc(Cl)cn5)cc4)cc23)ccc2c1cnn2CC(C)(C)O [Ex 895, N-(5-chloropyrimidin-2-yl)-4-((5-(1-(2-hydroxy-2-methylpropyl)-4-methyl-1H-indazol-5-yl)-2,6-naphthyridin-3-yl)amino)benzenesulfonamide] | 25 to 250 nM | > 250 nM | > 250 nM | > 250 nM | – | – | – | – |
| Cc1cnc(NS(=O)(=O)c2ccc(Nc3cc4c(-c5ccc6c(cnn6CC(C)(C)O)c5C)nccc4cn3)cc2)nc1 [Ex 896, 4-((5-(1-(2-hydroxy-2-methylpropyl)-4-methyl-1H-indazol-5-yl)-2,6-naphthyridin-3-yl)amino)-N-(5-methylpyrimidin-2-yl)benzenesulfonamide] | – | > 250 nM | – | – | < 25 nM | 25 to 250 nM | 25 to 250 nM | – |
| COc1ccnc(NS(=O)(=O)c2ccc(Nc3cc4c(-c5ccc6c(cnn6CC(C)(C)O)c5C)nccc4cn3)cc2)n1 [Ex 897, 4-((5-(1-(2-hydroxy-2-methylpropyl)-4-methyl-1H-indazol-5-yl)-2,6-naphthyridin-3-yl)amino)-N-(4-methoxypyrimidin-2-yl)benzenesulfonamide] | – | > 250 nM | > 250 nM | – | < 25 nM | – | 25 to 250 nM | – |
| COc1cc(OC)nc(NS(=O)(=O)c2ccc(Nc3cc4c(-c5ccc6c(cnn6CC(C)(C)O)c5C)nccc4cn3)cc2)n1 [Ex 898, N-(4,6-dimethoxypyrimidin-2-yl)-4-((5-(1-(2-hydroxy-2-methylpropyl)-4-methyl-1H-indazol-5-yl)-2,6-naphthyridin-3-yl)amino)benzenesulfonamide] | – | > 250 nM | > 250 nM | > 250 nM | < 25 nM | – | – | – |
| Cc1cc(C#Cc2nccc3cnc(Nc4ccc(S(C)(=O)=O)cc4)cc23)sn1 [Ex 899, 5-((3-methylisothiazol-5-yl)ethynyl)-N-(4-(methylsulfonyl)phenyl)-2,6-naphthyridin-3-amine] | 25 to 250 nM | > 250 nM | > 250 nM | > 250 nM | – | – | – | – |
| CS(=O)(=O)c1ccc(Nc2cc3c(C#Cc4ccc(C#N)s4)nccc3cn2)cc1 [Ex 900, 5-((7-((4-(methylsulfonyl)phenyl)amino)-2,6-naphthyridin-1-yl)ethynyl)thiophene-2-carbonitrile] | 25 to 250 nM | > 250 nM | > 250 nM | > 250 nM | – | – | – | – |
| Cc1cnc(C#Cc2nccc3cnc(Nc4ccc(S(C)(=O)=O)cc4)cc23)[nH]1 [Ex 901, 5-((5-methyl-1H-imidazol-2-yl)ethynyl)-N-(4-(methylsulfonyl)phenyl)-2,6-naphthyridin-3-amine] | 25 to 250 nM | > 250 nM | > 250 nM | > 250 nM | – | – | – | – |
| CC#Cc1nccc2cnc(Nc3ccc(S(=O)(=O)Nc4nccc(C)n4)cc3)cc12 [Ex 905, N-(4-methylpyrimidin-2-yl)-4-((5-(prop-1-yn-1-yl)-2,6-naphthyridin-3-yl)amino)benzenesulfonamide] | 25 to 250 nM | > 250 nM | > 250 nM | > 250 nM | – | – | – | – |
| COc1cnc(NS(=O)(=O)c2ccc(Nc3cc4c(-c5ccc6c(cnn6CC(C)(C)O)c5C)nccc4cn3)cc2)nc1 [Ex 906, 4-((5-(1-(2-hydroxy-2-methylpropyl)-4-methyl-1H-indazol-5-yl)-2,6-naphthyridin-3-yl)amino)-N-(5-methoxypyrimidin-2-yl)benzenesulfonamide] | – | > 250 nM | > 250 nM | > 250 nM | < 25 nM | – | – | – |
| Cc1c(-c2nccc3cnc(Nc4ccc(S(=O)(=O)Nc5nccc(C(F)(F)F)n5)cc4)cc23)ccc2c1cnn2CC(C)(C)O [Ex 907, 4-((5-(1-(2-hydroxy-2-methylpropyl)-4-methyl-1H-indazol-5-yl)-2,6-naphthyridin-3-yl)amino)-N-(4-(trifluoromethyl)pyrimidin-2-yl)benzenesulfonamide] | – | > 250 nM | > 250 nM | > 250 nM | < 25 nM | – | – | – |
| Cc1ccnc(NS(=O)(=O)c2ccc(Nc3cc4c(-c5ccc6c(cnn6CC(C)(C)O)c5C)nccc4cn3)cc2)n1 [Ex 908, 4-((5-(1-(2-hydroxy-2-methylpropyl)-4-methyl-1H-indazol-5-yl)-2,6-naphthyridin-3-yl)amino)-N-(4-methylpyrimidin-2-yl)benzenesulfonamide] | – | > 250 nM | – | – | < 25 nM | 25 to 250 nM | 25 to 250 nM | – |
| COc1nccc(C#Cc2nccc3cnc(Nc4ccc(S(C)(=O)=O)cc4)cc23)c1C [Ex 909, 5-((2-methoxy-3-methylpyridin-4-yl)ethynyl)-N-(4-(methylsulfonyl)phenyl)-2,6-naphthyridin-3-amine] | 25 to 250 nM | > 250 nM | > 250 nM | > 250 nM | – | – | – | – |
| COc1cc(C)c(C#Cc2nccc3cnc(Nc4ccc(S(C)(=O)=O)cc4)cc23)cn1 [Ex 910, 5-((6-methoxy-4-methylpyridin-3-yl)ethynyl)-N-(4-(methylsulfonyl)phenyl)-2,6-naphthyridin-3-amine] | 25 to 250 nM | > 250 nM | > 250 nM | > 250 nM | – | – | – | – |
| CS(=O)(=O)c1ccc(Nc2cc3c(C#Cc4cc(O)cc(F)c4)nccc3cn2)cc1 [Ex 911, 3-fluoro-5-((7-((4-(methylsulfonyl)phenyl)amino)-2,6-naphthyridin-1-yl)ethynyl)phenol] | 25 to 250 nM | > 250 nM | > 250 nM | > 250 nM | – | – | – | – |
| COc1cc(C#Cc2nccc3cnc(Nc4ccc(S(C)(=O)=O)cc4)cc23)ccc1F [Ex 912, 5-((4-fluoro-3-methoxyphenyl)ethynyl)-N-(4-(methylsulfonyl)phenyl)-2,6-naphthyridin-3-amine] | – | > 250 nM | > 250 nM | > 250 nM | – | – | – | > 250 nM |
| CS(=O)(=O)c1ccc(Nc2cc3c(C#Cc4cc(C(=O)O)c(N)cc4F)nccc3cn2)cc1 [Ex 913, 2-amino-4-fluoro-5-((7-((4-(methylsulfonyl)phenyl)amino)-2,6-naphthyridin-1-yl)ethynyl)benzoic acid] | 25 to 250 nM | > 250 nM | > 250 nM | > 250 nM | – | – | – | – |
| Cc1c(-c2nccc3cnc(Nc4ccc5c(c4)CCCS5(=O)=O)cc23)ccc2c1cnn2CC(C)(C)O [Ex 914, 6-((5-(1-(2-hydroxy-2-methylpropyl)-4-methyl-1H-indazol-5-yl)-2,6-naphthyridin-3-yl)amino)thiochromane 1,1-dioxide] | – | > 250 nM | – | – | < 25 nM | 25 to 250 nM | 25 to 250 nM | – |
| Cc1c(-c2nccc3cnc(Nc4ccc5c(c4)CCS5(=O)=O)cc23)ccc2c1cnn2CC(C)(C)O [Ex 915, 5-((5-(1-(2-hydroxy-2-methylpropyl)-4-methyl-1H-indazol-5-yl)-2,6-naphthyridin-3-yl)amino)-2,3-dihydrobenzo[b]thiophene 1,1-dioxide] | – | > 250 nM | – | – | < 25 nM | 25 to 250 nM | 25 to 250 nM | – |
| Cc1c(-c2nccc3cnc(Nc4cccc5ccccc45)cc23)ccc2c1cnn2CC(C)(C)O [Ex 916, 2-methyl-1-(4-methyl-5-(7-(naphthalen-1-ylamino)-2,6-naphthyridin-1-yl)-1H-indazol-1-yl)propan-2-ol] | 25 to 250 nM | > 250 nM | > 250 nM | > 250 nM | – | – | – | – |
| N#Cc1ccc(C#Cc2nccc3cnc(Nc4cnc(O)c(N5CCNCC5)c4)cc23)cc1 [Ex 917, 4-((7-((6-hydroxy-5-(piperazin-1-yl)pyridin-3-yl)amino)-2,6-naphthyridin-1-yl)ethynyl)benzonitrile] | 25 to 250 nM | > 250 nM | > 250 nM | > 250 nM | – | – | – | – |
